SMILES strings stand for the structures.

For experiment [1], the target named is T1, Kappa-type opioid receptor (Homo sapiens, UniProt P41145). The experiment is described as follows: (§1) Agonistic activity against human opioid Kappa receptor transfected into Chinese hamster ovary (CHO) cells using [3H]U-69593 as radioligand. Type of experiment: functional, cell-based.
For experiment [2], the target named is T2, Mu-type opioid receptor (Homo sapiens, UniProt P35372). As to the kind of experiment: Agonistic activity against human opioid Mu receptor transfected into Chinese hamster ovary (CHO) cells using [3H]DAMGO as radioligand. In kind it is functional, cell-based.
Experiment [3] deals with T3, Delta-type opioid receptor (Homo sapiens, UniProt P41143). As to the kind of experiment: (§2) Agonistic activity against human opioid Delta receptor transfected into Chinese hamster ovary (CHO) cells using [3H]Cl-DPDPE as radioligand. In kind it is functional, cell-based.
In experiment [4] the target is T2, Mu-type opioid receptor. The experiment is described as follows: Agonistic activity against human opioid Mu receptor transfected into Chinese hamster ovary (CHO) cells using [3H]-DAMGO as radioligand. In kind it is functional, cell-based.
Experiment [5] has as its target T1, Kappa-type opioid receptor. Described as §1. Type of experiment: functional, cell-based. The source holds these as a separate data set.
For experiment [6], the target named is T1, Kappa-type opioid receptor. The experiment is described as follows: Binding affinity towards human opioid Kappa receptor transfected into Chinese hamster ovary (CHO) cells using [3H]U-69593 as radioligand. In kind it is cell-based.
Experiment [7] deals with T3, Delta-type opioid receptor. The description is as §2. Type of experiment: functional, cell-based. This is another data set of the same source.
In experiment [8] the target is T3, Delta-type opioid receptor. As to the kind of experiment: Binding affinity towards human opioid Delta receptor transfected into Chinese hamster ovary (CHO) cells using [3H]Cl-DPDPE as radioligand. Type of experiment: cell-based.
For experiment [9], the target named is T2, Mu-type opioid receptor. The experiment is described as follows: Binding affinity towards human opioid Mu receptor transfected into Chinese hamster ovary (CHO) cells using [3H]DAMGO as radioligand. In kind it is cell-based.
Experiment [10] deals with T2, Mu-type opioid receptor. Described as §2. In kind it is functional, cell-based.
Experiment [11] deals with T1, Kappa-type opioid receptor. As to conditions: CHO.
Description: Antagonistic activity against human opioid Kappa receptor transfected into Chinese hamster ovary (CHO) cells using [3H]U-69593 as radioligand

T3 sequence (P41143 whole entry): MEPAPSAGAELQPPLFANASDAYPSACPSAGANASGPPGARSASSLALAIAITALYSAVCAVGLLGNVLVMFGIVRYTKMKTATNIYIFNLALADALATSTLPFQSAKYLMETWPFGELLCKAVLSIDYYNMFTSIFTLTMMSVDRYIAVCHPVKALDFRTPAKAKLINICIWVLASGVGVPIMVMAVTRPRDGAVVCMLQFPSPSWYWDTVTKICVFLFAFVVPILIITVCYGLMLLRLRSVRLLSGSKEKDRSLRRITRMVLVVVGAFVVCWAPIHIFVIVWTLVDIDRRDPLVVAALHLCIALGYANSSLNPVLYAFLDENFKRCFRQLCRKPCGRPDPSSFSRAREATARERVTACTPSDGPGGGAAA
T1 sequence (P41145 whole entry): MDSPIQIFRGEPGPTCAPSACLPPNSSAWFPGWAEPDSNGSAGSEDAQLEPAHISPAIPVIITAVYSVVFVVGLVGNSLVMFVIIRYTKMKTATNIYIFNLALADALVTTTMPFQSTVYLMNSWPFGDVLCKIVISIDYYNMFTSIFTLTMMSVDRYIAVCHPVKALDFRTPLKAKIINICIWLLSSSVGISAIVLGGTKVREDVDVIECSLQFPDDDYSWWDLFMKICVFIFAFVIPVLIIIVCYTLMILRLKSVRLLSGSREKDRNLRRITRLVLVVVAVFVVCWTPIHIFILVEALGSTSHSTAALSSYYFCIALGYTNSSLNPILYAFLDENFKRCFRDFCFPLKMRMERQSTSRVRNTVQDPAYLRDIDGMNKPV
T2 sequence (P35372 whole entry): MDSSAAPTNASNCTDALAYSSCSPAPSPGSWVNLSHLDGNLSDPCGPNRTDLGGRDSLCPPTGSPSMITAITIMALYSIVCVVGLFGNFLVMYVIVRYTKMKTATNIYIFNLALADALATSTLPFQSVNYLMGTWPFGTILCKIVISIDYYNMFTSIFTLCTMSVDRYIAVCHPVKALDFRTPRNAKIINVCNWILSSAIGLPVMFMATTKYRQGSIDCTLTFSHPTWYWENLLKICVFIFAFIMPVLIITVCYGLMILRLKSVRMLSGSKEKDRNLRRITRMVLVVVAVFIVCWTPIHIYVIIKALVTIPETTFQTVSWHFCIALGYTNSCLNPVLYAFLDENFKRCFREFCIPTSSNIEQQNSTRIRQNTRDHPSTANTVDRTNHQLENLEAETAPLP

With `CN1CCC23c4c5ccc(O)c4OC2c2nc(O)ncc2CC3(O)C1C5` (centres undefined), the Stimulation in [1] came out at 40.7%; on Mu-type opioid receptor [2] it was 87.7%; in experiment [3], 97%.
In general, EC50 refers to the concentration at which the effect is half-maximal. Low values mean a more potent agent, high ones a less potent agent. The Ki is a dissociation constant, usually derived from enzyme kinetics or from competition with a known ligand. A high value points to weaker binding. Turning to `Cc1ncc2c(n1)C1Oc3c(O)ccc4c3C13CCN(C)C(C4)C3(O)C2` (centres undefined), the Stimulation in experiment [1] was found to be 97%; on Mu-type opioid receptor [2] it was 109%; in experiment [3], 60%. For the same compound, the EC50 at Mu-type opioid receptor [4] came out at 71.9 nM; in experiment [5], 2730 nM; in experiment [7], 95.9 nM. Besides, the results for the Ki (in experiment [6]; in experiment [8]; on Mu-type opioid receptor [9]) were 68.5 nM, 24 nM and 5.26 nM, respectively.
Take `CN1CCC23c4c5ccc(O)c4OC2c2[nH]c(=O)ncc2CC3(O)C1C5` (centres undefined): the results for the EC50 (at Mu-type opioid receptor [4]; in experiment [5]; in experiment [7]) were 110 nM, 1020 nM and 61.5 nM, respectively. Moreover, the inhibition constant (Ki) in [6] was found to be 12.3 nM; in [8] it was 19.1 nM; on Mu-type opioid receptor [9] it was 3.75 nM.
In the case of `CN1CCC23c4c5ccc(O)c4OC2c2nc(N)ncc2CC3(O)C1C5` (centres undefined), the values for the Stimulation (in [1]; on Mu-type opioid receptor [10]) were 34.3% and 78.7%, respectively. The values for the concentration for a half-maximal effect (EC50) (at Mu-type opioid receptor [4]; in [5]; in experiment [7]) were 75.2 nM, 1080 nM and 66.1 nM, respectively. The inhibition constant Ki stood at 21.1 nM in experiment [6], 19 nM in experiment [8] and 7.32 nM on Mu-type opioid receptor [9].
For the compound `CN1CCC23c4c5ccc(O)c4OC2c2nc(-c4ccccc4)ncc2CC3(O)C1C5` (centres undefined), the results for the Stimulation (in [1]; at Mu-type opioid receptor [2]; in experiment [3]) were 49.5%, 89.4% and 92.5%, respectively. Also, the results for the half-maximal effective concentration (EC50) (on Mu-type opioid receptor [4]; in [5]; in [7]) were 58.4 nM, 1420 nM and 24 nM, respectively. Further, the Ki in [6] was determined as 45 nM; in [8], 6.48 nM; on Mu-type opioid receptor [9], 7.34 nM.
Turning to `CN1CCC23c4c5ccc(O)c4OC2c2n[nH]cc2CC3(O)C1C5` (centres undefined), the values for the Stimulation (in experiment [1]; at Mu-type opioid receptor [2]; in experiment [3]) were 18.9%, 80.3% and 75.2%, respectively. The compound also showed a Ke in experiment [11] of 59.3. Besides, the EC50 at Mu-type opioid receptor [4] stood at 19.3 nM; in [7], 25 nM. The Ki was determined as 11.9 nM in [6], 12.2 nM in experiment [8] and 1.72 nM on Mu-type opioid receptor [9].

For the origin of these results see ChEMBL document CHEMBL1131901, “Synthesis and opiate receptor binding properties of 17-methyl-6,7-dehydro-3,14-dihydroxy-4,5alpha-epoxy-6,7:4',5'-pyrimidin omorphinans” (Bioorg Med Chem Lett, 1999).
